Test results reported in patent publication US9730906B2, “α-derivatives of cis-monounsaturated fatty acids for use as medicines” (UNIVERSITAT DE LES ILLES BALEARS, priority 2008, dated 2017).
Read-outs that look alike come from different tables or passages of the source.

How the values were obtained:
A549 cells = assay: Growth/viability of A549 lung cancer cells in culture (cell count); assay type: cell-based, human; details: for tumour cell growth (number of cells, percent of untreated): 150 μM, 48 hours, A549
Protocol: FIG. 3A. Cancer cells (A549) were treated with various concentrations of OHOD and MOD11 to determine whether the effect was dependent on the concentration. […] These cells were treated with different concentrations (0-400 μM) of OHOD and MOD11 and the number of cells was determined by flow cytometry.
FIG. 3B. Cancer cells (A549) were treated with compounds indicated on the horizontal axis for 48 hours at 150 μM. Then, the cells were counted and their number and percent of untreated (control) represented on the vertical axis.
Also, a series of α-derivatives of cis-monounsaturated fatty acids were used to investigate their effectiveness in cancer treatment. Two types of experiment were performed. Firstly, the dependency of the anti-tumour effect on concentration was investigated. To perform these experiments, human lung cancer cells (A549) were cultivated in RPMI medium, supplemented with 10% foetal bovine […], 10 mM Hepes (pH 7.4), 2 mM glutamine, 2 g/l bicarbonate, 1 g/l glucose, 100 units/ml penicillin, 0.1 mg/ml streptomycin, 0.25 μg/ml Amphotericin B, at 37° C. and in the presence of 5% CO2. In a first experimental series, these cells were treated with various concentrations (0-400 μM) of OHOD and MOD11 and the number of cells was determined by flow cytometry (FIG. 3A). […] In a second series, the anti-tumour effectiveness on A549 lung cancer cells was investigated at a single concentration (150 μM) and a time of 48 hours (FIG. 3B). […] Obviously, among the previous molecules, some lacked both modifications on the α-carbon and the double bond in cis configuration (EO, HDO, ODO) and had no therapeutic effect. […]

SF767 human tumour cells = assay: Growth of SF767 tumour cells in culture; assay type: cell-based
Protocol: In a second experimental series, designed to discover whether these molecules are effective in treatment of different types of tumours, the effect of OHOD at various concentrations on human cells of different types of cancer was studied. These experiments were performed as described before, except that the M220 and HT-29 cell lines were cultured in DMEM medium and the MDA-MB-231 line was incubated in Leibowitz L-15 medium supplemented with 15% foetal bovine […]. […] Where the nature of the tumour process requires, application can be topical (use on the skin of active products for the treatment of melanoma and other cutaneous abnormalities of cancerous nature), which can be considered as cosmetic treatments when attempts are made to correct aesthetic defects.

hypertensive rats = assay: Arterial pressure in hypertensive rats after 8-day treatment (Table 5); assay type: in vivo, rat
[1] = Levels of cholesterol, triglycerides and glucose in rats after oral treatment; assay type: in vivo, rat
Protocol: FIG. 13. The four bars, from left to right respectively, show the effect of treatments with vehicle (control, first bar), OHOD at 200 mg/kg (second bar), OHOD at 400 mg/kg (third bar) and OHOD at 600 mg/kg (fourth bar) on the cholesterol levels (group of four bars to the left), triglycerides (group of four bars in the middle) and glucose (group of four bars to the right). The treatments were oral in all cases and were maintained for 30 days. The values indicated are the average obtained in 6 animals per group.
FIG. 14. Effect of treatment with vehicle (control) or with the fatty acids of the invention (600 mg/kg) on the levels of cholesterol, triglycerides and glucose. The values indicated are the average of the values obtained in 6 animals. Each group of three bars represents treatment with a different fatty acid with the left bar corresponding to cholesterol, the middle bar to triglycerides and the right bar to glucose.
Metabolic diseases form a set of pathologies characterised by the accumulation or deficit of certain molecules (cholesterol, triglycerides, glucose, etc.) in the serum or tissues. These changes are the reflection of dysfunctions that are normally associated with errors in the activity of certain enzymes or in the control of these proteins. Among the most important metabolopathies are hypercholesterolemia (elevated levels of cholesterol), hypertriglyceridemia (elevated levels of triglycerides) and diabetes (elevated levels of glucose). These pathologies have high rates of incidence, morbidity and mortality, so that treatment is a first order necessity. […] For these experiments, the dose of fatty acid indicated (0, 200, 400 and 600 mg/kg) was supplied daily via the oral route. At the end of the treatment (30 days), blood was sampled from control and treated animals (n=6) and the levels of cholesterol, triglycerides and glucose were determined using standard colorimetric methods.
(§1) In a further experiment, the effect of various molecules at a single dose (600 mg/kg) was investigated. […] In this sense, modification on the α-carbon and the double bond in cis configuration are crucial elements for producing the therapeutic effect indicated above. […] Finally, the effect of α-derivatives of cis-monounsaturated fatty acids on the prevention of obesity was investigated. For this, a model of rat obesity induced by a cafeteria diet, where the hypercaloric food increases the weight of the animals very markedly, was used. There were various experimental groups (see Table 3), each of which consisted of 6 female Wistar Kyoto rats of 250-300 g in weight. All the animals received a standard diet for 2 weeks. In addition, 2 of the groups received an oral preventative pre-treatment of vehicle and the other groups received 300 mg/kg of the fatty acids indicated below. Afterwards, one of the control groups was maintained on a standard diet (lean control) and the other was fed on a cafeteria diet (obese control). The treated animal groups were fed on the cafeteria diet. Preventative pre-treatment was maintained for all the groups. After two weeks on these diets, the lean control group had increased their body weight by an average of 16±16 g, while the obese control group had increased their body weight by an average of 43±17 g (statistically significance difference, p<0.01).

[2] = Body weight of rats on cafeteria diet, no pre-treatment (Table 5); assay type: in vivo, rat
From the text: (§2) The weight of treated animals was statistically less than the weight of obese control rats and statistically indistinguishable from that of lean control rats.

[3] = Rat obesity induced by cafeteria diet, preventative pre-treatment (Table 3); assay type: in vivo, Wistar Kyoto rats; details: 300 mg/kg oral, after two weeks on cafeteria diet; obese control 308 ± 17, lean control 280 ± 16; * lower than obese controls, ‡ indistinguishable
Protocol: as §1, §2

[4] = concentration that reduces the number of cells to half
[5] = arterial pressure, hypertensive rats, 8-day treatment, 400 mg/kg oral
[6] = rats, daily dose of 600 mg/kg oral, untreated controls = 100%
[7] = cafeteria diet for 2 weeks, 300 mg/kg daily oral, no pre-treatment

CCCCCCCC/C=C\CCCCCCC(C(C)=O)C(=O)O (stereo not drawn) [ACOD, α-Acetyl-cis-Δ9-octadecenoic]
IC50 (A549 cells; [4]): 153 µM | IC50 (SF767 human tumour cells; [4]): 179 µM | PA (control 214 mmHg) (hypertensive rats; [5]): 157 mmHg | % control CHO (cholesterol) [1, 6]: 59 % control | % control TG (triglycerides) [1, 6]: 53 % control | Body weight (g) (control = 311 g) [2, 7]: 301 g

CCCCCCCC/C=C\CCCCCCC(OP(=O)(OCC)OCC)C(=O)O (stereo not drawn) [DEPOD, α-diethyl-phosphatidyl-cis-Δ9-octadecenoic]
IC50 (A549 cells): 57 µM | IC50 (SF767 human tumour cells): 99 µM | PA (control 214 mmHg) (hypertensive rats; rat, in vivo, po, 400 mg/kg): 147 mmHg | % control CHO (cholesterol) ([1]; rat, in vivo, po, 600 mg/kg): 58 % control | % control TG (triglycerides) ([1]; rat, in vivo, po, 600 mg/kg): 43 % control | Body weight (g) (control = 311 g) ([2]; rat, in vivo): 301 g

CCCCCCCC/C=C\CCCCCCC(OC(C)=O)C(=O)OCC (stereo not drawn) [EE- ACOD]
IC50 (A549 cells; [4]): 185 µM | IC50 (SF767 human tumour cells; [4]): 176 µM | PA (control 214 mmHg) (hypertensive rats; [5]): 158 mmHg | % control CHO (cholesterol) [1, 6]: 72 % control | % control TG (triglycerides) [1, 6]: 56 % control | Body weight (g) (control = 311 g) [2, 7]: 294 g

CCCCCCCC/C=C\CCCCCCC(OP(=O)(OCC)OCC)C(=O)OCC (stereo not drawn) [EE-DEPOD]
IC50 (A549 cells; [4]): 77 µM | IC50 (SF767 human tumour cells; [4]): 82 µM | PA (control 214 mmHg) (hypertensive rats; [5]): 168 mmHg | % control CHO (cholesterol) [1, 6]: 69 % control | % control TG (triglycerides) [1, 6]: 49 % control | Body weight (g) (control = 311 g) [2, 7]: 295 g

CCCCCCCC/C=C\CCCCCCC(OC)C(=O)OCC (stereo not drawn) [EE-MOOD]
IC50 (A549 cells; [4]): 168 µM | IC50 (SF767 human tumour cells; [4]): 195 µM | PA (control 214 mmHg) (hypertensive rats; [5]): 154 mmHg | % control CHO (cholesterol) [1, 6]: 64 % control | % control TG (triglycerides) [1, 6]: 66 % control | Body weight (g) (control = 311 g) [2, 7]: 297 g

CCCCCCCCC=CCCCCCCC(O)C(=O)OCC (stereo not drawn) [EE-OHOD]
IC50 (A549 cells; [4]): 79 µM | IC50 (SF767 human tumour cells; [4]): 68 µM | PA (control 214 mmHg) (hypertensive rats; [5]): 161 mmHg | % control CHO (cholesterol) [1, 6]: 62 % control | % control TG (triglycerides) [1, 6]: 47 % control | Body weight (g) (control = 311 g) [2, 7]: 295 g

CCCCCCCCCCCCCCCCCCCC(=O)O [EO, Eicosanoic, reference compound]
tumour cell growth (number of cells, percent of untreated) (A549 cells): did not show anti-tumour effectiveness | Final weight [3]: 298 ± 12‡ g

CCCCCCCCCCCCCCCC(=O)O [HDO, Hexadecanoic, reference compound]
tumour cell growth (number of cells, percent of untreated) (A549 cells): did not show anti-tumour effectiveness | Final weight [3]: 299 ± 15‡ g

CCCCCCCC/C=C\CCCCCCC(OC(C)=O)C(=O)[O-].[Na+] (stereo not drawn) [Na-ACOD]
IC50 (A549 cells; [4]): 124 µM | IC50 (SF767 human tumour cells; [4]): 132 µM | PA (control 214 mmHg) (hypertensive rats; [5]): 166 mmHg | % control CHO (cholesterol) [1, 6]: 49 % control | % control TG (triglycerides) [1, 6]: 35 % control | Body weight (g) (control = 311 g) [2, 7]: 298 g

CCCCCCCC/C=C\CCCCCCC(OP(=O)(OCC)OCC)C(=O)[O-].[Na+] (stereo not drawn) [Na-DEPOD]
IC50 (A549 cells; [4]): 32 µM | IC50 (SF767 human tumour cells; [4]): 104 µM | PA (control 214 mmHg) (hypertensive rats; [5]): 159 mmHg | % control CHO (cholesterol) [1, 6]: 45 % control | % control TG (triglycerides) [1, 6]: 37 % control | Body weight (g) (control = 311 g) [2, 7]: 298 g

CCCCCCCC/C=C\CCCCCCC(OC)C(=O)[O-].[Na+] (stereo not drawn) [Na-MOOD]
IC50 (A549 cells; [4]): 77 µM | IC50 (SF767 human tumour cells; [4]): 91 µM | PA (control 214 mmHg) (hypertensive rats; [5]): 131 mmHg | % control CHO (cholesterol) [1, 6]: 63 % control | % control TG (triglycerides) [1, 6]: 68 % control | Body weight (g) (control = 311 g) [2, 7]: 272 g

CCCCCCCC/C=C/CCCCCCCC(=O)O [OD, Trans-Octadecenoic, reference compound]
tumour cell growth (number of cells, percent of untreated) (A549 cells): did not show anti-tumour effectiveness | Final weight [3]: 311 ± 17‡ g

CCCCCCCCCCCCCCCCCC(=O)O [ODO, Octadecanoic, reference compound]
tumour cell growth (number of cells, percent of untreated) (A549 cells): did not show anti-tumour effectiveness | Final weight [3]: 301 ± 18‡ g

CCCCCCCCCCCCCCCCC(O)C(=O)O (stereo not drawn) [OHS, α-Hydroxy-octadecanoic, reference compound]
tumour cell growth (number of cells, percent of untreated) (A549 cells): lacked anti-tumour effectiveness | Final weight [3]: 314 ± 11‡ g

CCCCCCCC/C=C\CCCCCCC(OC(C)=O)C(=O)OC (stereo not drawn) [OMe- ACOD]
IC50 (A549 cells; [4]): 246 µM | IC50 (SF767 human tumour cells; [4]): 214 µM | PA (control 214 mmHg) (hypertensive rats; [5]): 152 mmHg | % control CHO (cholesterol) [1, 6]: 86 % control | % control TG (triglycerides) [1, 6]: 74 % control | Body weight (g) (control = 311 g) [2, 7]: 296 g

CCCCCCCC/C=C/CCCCCCC(O)C(=O)O (stereo not drawn) [tOHOD, α-Hydroxy-trans-octadecenoic, reference compound]
tumour cell growth (number of cells, percent of untreated) (A549 cells): lacked anti-tumour effectiveness | Final weight [3]: 312 ± 19‡ g

Cis-Docosenoic [DE, reference compound]
tumour cell growth (number of cells, percent of untreated) (A549 cells): did not show anti-tumour effectiveness | Final weight [3]: 305 ± 12‡ g

Cis-Eicosenoic [EE, reference compound]
tumour cell growth (number of cells, percent of untreated) (A549 cells): did not show anti-tumour effectiveness | Final weight [3]: 301 ± 17‡ g

Trans-Hexadecenoic [HD, reference compound]
tumour cell growth (number of cells, percent of untreated) (A549 cells): did not show anti-tumour effectiveness | Final weight [3]: 309 ± 15‡ g
